Data: patent publication US10414769B2, “5,8-dimethyl-9-phenyl-5,8-dihydro-6H-pyrazolo[3,4-h]quinazolin-2-yl)-(1H-pyrazol-3-yl)-amines as IGF-1R/IR inhibitors” (Boehringer Ingelheim International GmbH, priority 2015, dated 2019)

How the values were obtained:
Assay type in all cases: biochemical
[1] = molecular target: T1, FRAP1 (mTOR) (Homo sapiens, UniProt P42345); test: Z'-LYTE kinase selectivity assay FRAP1 (mTOR)
T1 construct: purchased Life Technologies PR8683B
From the text: (§1) In order to compare the kinase selectivity of compounds (I) according to the invention with known prior art compounds the commercially provided SelectScreen® Kinase Profiling Service (Z′-LYTE®) was used (Life Technologies GmbH, Darmstadt, Germany) to investigate the ability of the compounds to inhibit a number of different, representatively selected human kinases. Further details regarding this service are available on the Life Technologies website at
(§2) The Z′-LYTE® biochemical assay employs a fluorescence-based, coupled-enzyme format and is based on the differential sensitivity of phosphorylated and non-phosphorylated peptides to proteolytic cleavage. The peptide substrate is labeled with two fluorophores—one at each end—that make up a FRET pair.
(§3) In the primary reaction, the kinase transfers the gamma-phosphate of ATP to a single tyrosine, serine or threonine residue in a synthetic FRET-peptide. In the secondary reaction, a site-specific protease recognizes and cleaves non-phosphorylated FRET-peptides. Phosphorylation of FRET-peptides suppresses cleavage by the Development Reagent. Cleavage disrupts FRET between the donor (i.e., coumarin) and acceptor (i.e., fluorescein) fluorophores on the FRET-peptide, whereas uncleaved, phosphorylated FRET-peptides maintain FRET. A ratiometric method, which calculates the ratio (the Emission Ratio) of donor emission to acceptor emission after excitation of the donor fluorophore at 400 nm, is used to quantitate reaction progress, as shown in the equation below.
(§4) The Test Compounds are screened at 1 μM.
The 2×FRAP1 (mTOR) (# PR8683B)/Ser/Thr 11 (Z′-LYTE® Kinase Assay Kit—Ser/Thr 11 Peptide, # PV 3670) mixture is prepared in 50 mM HEPES pH 7.5, 0.01% BRIJ-35, 10 mM MnCl2, 1 mM EGTA, 2 mM DTT, 0.02% NaN3. The final 10 μL Kinase Reaction consists of 11.1-56 ng FRAP1 (mTOR) and 2 μM Ser/Thr 11 in 50 mM HEPES pH 7.5, 0.01% BRIJ-35, 5 mM MgCl2, 5 mM MnCl2, 1 mM EGTA, 1 mM DTT, 0.01% NaN3. After the 1 hour Kinase Reaction incubation, 5 μL of a 1:16 dilution of Development Reagent B is added.

[2] = molecular target: T2, MAP3K8 (COT) (Homo sapiens, UniProt P41279); test: Z'-LYTE kinase selectivity assay MAP3K8
T2 construct: purchased Life Technologies PV 4313
From the text: as §1, §2, §3, §4
After the 1 hour Kinase Reaction incubation, 5 μL of a 1:1024 dilution of Development Reagent A is added.

[3] = molecular target: T3, PRKACA (PKA) (Homo sapiens, UniProt P17612); test: Z'-LYTE kinase selectivity assay PRKACA
T3 construct: purchased Life Technologies P 2912
From the text: as §1, §2, §3, §4
The 2×PRKACA (PKA) (# P 2912)/Ser/Thr 01 (Z′-LYTE® Kinase Assay Kit—Ser/Thr 1 Peptide, # PV 3174) mixture is prepared in 50 mM HEPES pH 7.5, 0.01% BRIJ-35, 10 mM MgCl2, 1 mM EGTA. The final 10 μL Kinase Reaction consists of 0.03-0.15 ng PRKACA (PKA) and 2 μM Ser/Thr 01 in 50 mM HEPES pH 7.5, 0.01% BRIJ-35, 10 mM MgCl2, 1 mM EGTA. After the 1 hour Kinase Reaction incubation, 5 μL of a 1:4096 dilution of Development Reagent A is added.

[4] = molecular target: T4, ROCK2 (Homo sapiens, UniProt O75116); test: Z'-LYTE kinase selectivity assay ROCK2
T4 construct: purchased Life Technologies PV 3759
From the text: as §1, §2, §3, §4
The 2×ROCK2 (# PV 3759)/Ser/Thr 13 (Z′-LYTE® Kinase Assay Kit—Ser/Thr 13 Peptide, # PV 3793) mixture is prepared in 50 mM HEPES pH 7.5, 0.01% BRIJ-35, 10 mM MgCl2. 1 mM EGTA. The final 10 μL Kinase Reaction consists of 0.62-4.13 ng ROCK2 and 2 μM Ser/Thr 13 in 50 mM HEPES pH 7.5, 0.01% BRIJ-35, 10 mM MgCl2, 1 mM EGTA. After the 1 hour Kinase Reaction incubation, 5 μL of a 1:1024 dilution of Development Reagent A is added.

T2 sequence (P41279 whole entry): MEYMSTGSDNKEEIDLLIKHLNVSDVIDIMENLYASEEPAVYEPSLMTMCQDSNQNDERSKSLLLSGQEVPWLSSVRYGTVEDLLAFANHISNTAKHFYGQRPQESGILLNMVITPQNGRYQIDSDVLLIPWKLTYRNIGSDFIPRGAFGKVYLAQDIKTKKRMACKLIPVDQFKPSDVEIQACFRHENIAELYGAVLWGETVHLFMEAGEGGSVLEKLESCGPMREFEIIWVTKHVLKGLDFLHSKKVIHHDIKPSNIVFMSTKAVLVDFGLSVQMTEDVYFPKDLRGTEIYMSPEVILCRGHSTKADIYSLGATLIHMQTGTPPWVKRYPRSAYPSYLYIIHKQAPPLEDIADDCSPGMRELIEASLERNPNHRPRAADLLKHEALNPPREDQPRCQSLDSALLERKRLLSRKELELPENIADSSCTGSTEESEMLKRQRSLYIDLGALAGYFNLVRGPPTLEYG
T4 sequence (O75116 whole entry): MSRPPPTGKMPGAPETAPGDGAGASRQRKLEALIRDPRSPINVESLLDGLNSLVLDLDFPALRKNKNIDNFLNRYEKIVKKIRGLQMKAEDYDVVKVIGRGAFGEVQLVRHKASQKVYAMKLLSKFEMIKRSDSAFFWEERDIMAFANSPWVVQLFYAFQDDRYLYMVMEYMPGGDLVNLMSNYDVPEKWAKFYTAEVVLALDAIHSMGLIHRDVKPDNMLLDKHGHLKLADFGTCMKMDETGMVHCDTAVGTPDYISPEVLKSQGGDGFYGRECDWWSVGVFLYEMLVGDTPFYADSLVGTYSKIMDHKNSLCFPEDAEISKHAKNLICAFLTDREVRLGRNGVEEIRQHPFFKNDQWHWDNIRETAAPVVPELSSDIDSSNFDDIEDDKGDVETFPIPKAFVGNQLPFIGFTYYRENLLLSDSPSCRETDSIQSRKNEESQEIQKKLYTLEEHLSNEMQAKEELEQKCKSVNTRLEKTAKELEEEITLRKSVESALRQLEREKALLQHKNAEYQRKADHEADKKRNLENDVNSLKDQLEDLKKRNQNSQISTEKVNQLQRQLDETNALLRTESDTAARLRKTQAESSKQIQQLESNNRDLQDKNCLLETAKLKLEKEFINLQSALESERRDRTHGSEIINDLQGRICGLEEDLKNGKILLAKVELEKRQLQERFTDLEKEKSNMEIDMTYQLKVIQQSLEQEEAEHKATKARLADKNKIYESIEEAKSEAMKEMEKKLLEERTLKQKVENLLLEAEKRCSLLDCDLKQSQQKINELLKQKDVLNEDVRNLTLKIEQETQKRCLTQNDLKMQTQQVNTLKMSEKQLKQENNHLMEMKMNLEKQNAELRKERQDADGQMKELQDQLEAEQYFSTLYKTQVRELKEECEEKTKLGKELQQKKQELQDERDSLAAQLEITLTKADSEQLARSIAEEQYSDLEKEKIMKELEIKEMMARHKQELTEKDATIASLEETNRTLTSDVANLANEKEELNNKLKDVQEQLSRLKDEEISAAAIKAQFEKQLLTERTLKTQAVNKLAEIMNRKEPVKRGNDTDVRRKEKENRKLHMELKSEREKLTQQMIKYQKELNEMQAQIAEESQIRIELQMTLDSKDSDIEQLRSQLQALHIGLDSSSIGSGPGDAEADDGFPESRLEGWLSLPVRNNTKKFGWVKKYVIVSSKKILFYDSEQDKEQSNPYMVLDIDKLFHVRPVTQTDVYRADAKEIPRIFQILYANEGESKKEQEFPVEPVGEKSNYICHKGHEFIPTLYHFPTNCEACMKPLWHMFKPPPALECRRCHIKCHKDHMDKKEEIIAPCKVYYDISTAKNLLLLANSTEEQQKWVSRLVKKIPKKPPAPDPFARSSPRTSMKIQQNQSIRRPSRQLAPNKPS

Row | Compound | inhibition at 1 µM [1] [%] | inhibition at 1 µM [2] [%] | inhibition at 1 µM [3] [%] | inhibition at 1 µM [4] [%]
1 | CC(O)CN1CCN(CCn2ccc(Nc3ncc4c(n3)-c3c(nn(C)c3-c3ccccc3)C[C@H]4C)n2)CC1 (stereo partly shown) [Compound I-7] | 3 | 42 | 16 | 9
2 | C[C@@H]1Cc2nn(C)c(-c3ccccc3)c2-c2nc(Nc3ccn(CCN4CCN(CC(C)(C)O)CC4)n3)ncc21 [Compound I-3] | -10 | 45 | 13 | 7
3 | C[C@@H]1Cc2nn(C)c(-c3ccccc3)c2-c2nc(Nc3ccn(CCN4CCN(C)CC4)n3)ncc21 [Compound I-1] | -6 | 27 | -5 | 1
4 | C[C@@H]1Cc2nn(C)c(-c3ccccc3)c2-c2nc(Nc3ccn(CCN4CCOCC4)n3)ncc21 [Compound I-2] | 1 | 57 | 22 | 6

Continued, values first:

Row | inhibition at 1 µM [1] [%] | inhibition at 1 µM [2] [%] | inhibition at 1 µM [3] [%] | inhibition at 1 µM [4] [%] | Compound
5 | -11 | 22 | -3 | 9 | COCCN1CCN(CCn2ccc(Nc3ncc4c(n3)-c3c(nn(C)c3-c3ccccc3)C[C@H]4C)n2)CC1 [Compound I-11]
6 | -8 | 38 | 16 | 7 | C[C@@H]1Cc2nn(C)c(-c3ccccc3)c2-c2nc(Nc3ccn(CCN4CCN(CC(=O)OC5CCOCC5)CC4)n3)ncc21 [Compound I-8]
7 | -12 | 37 | 17 | 3 | C[C@@H]1Cc2nn(C)c(-c3ccccc3)c2-c2nc(Nc3ccn(CCN4CCN(CC5CCCO5)CC4)n3)ncc21 (stereo partly shown) [Compound I-9]
